The values below are quoted from earlier work in US20100183693A1 (priority 2005, published 2010).

Entries after “also recorded” stand apart in the source; their conditions may differ. Like-named read-outs stand apart in the source and are kept apart here.

For `CC1(C)C(=O)N(Cl)C(=O)N1Br` [BCDMH, bromo-chlorodimethyl hydantoin], the “Effectiveness of Biocides (rank order)” value runs as follows: (pH 6.8) “BCDMH < ozone; also recorded: ClO2 < HOCl + NaBr < BCDMH < Cl2 <”; (pH 8) “HOCl + NaBr < ClO2 < BCDMH < Cl2 <”.

In the case of `[O][Cl+][O-]` [ClO2, chlorine dioxide], the “Effectiveness of Biocides (rank order)” value by setting is: (pH 6.8) “Cl2 < NaOCl < HOCl + NaBr < ClO2 <; also recorded: ClO2 < HOCl + NaBr < BCDMH < Cl2 <”; (pH 8) “HOCl + NaBr < ClO2 < BCDMH < Cl2 <”.

Regarding `[Na+].[O-]Cl` [NaOCl], the “Effectiveness of Biocides (rank order)” value (pH 6.8) is reported as “Cl2 < NaOCl < HOCl + NaBr < ClO2 <; also recorded: NaOCl < ozone” and the “Effectiveness of Biocides (rank order)” value (pH 8) is given as “NaOCl < ozone”.

`O=[O+][O-]` [Sample O3, ozone]: the “Effectiveness of Biocides (rank order)” value runs as follows: (pH 6.8) “BCDMH < ozone; also recorded: NaOCl < ozone”; (pH 8) “NaOCl < ozone”.
